Values of other authors in patent publication US20090162444A1, “RALOXIFENE COMPOSITION” (priority 2007, published 2009).
Where a name gives a salt, the structure may show the parent alone.

Legend:
[1] = not given; remark: listed apart in the source
[2] = oral administration

**Q.** For `O=C(c1ccc(OCCN2CCCCC2)cc1)c1c(-c2ccc(O)cc2)sc2cc(O)ccc12` [Raloxifene hydrochloride, raloxifene hydrochloride], which solubility in water is on record?
**A.** 627 µg/mL

**Q.** And the “solubility in gastric and intestinal fluid” value [1]?
**A.** very slightly soluble

**Q.** Which absolute bioavailability [2] does the source give for `O=C(c1ccc(OCCN2CCCCC2)cc1)c1c(-c2ccc(O)cc2)sc2cc(O)ccc12` [Raloxifene, (6-hydroxy-2-(4-hydroxy-phenyl)benzo[b]thien-3-yl)-(4-(2-(1-piperidinyl)ethoxy)phenyl)methanone] here?
**A.** about 2%
